Literature values in US11197860B2 (Eli Lilly and Company, priority 2018, dated 2021).

Experiments:
[1] = phase 3 trials; EMA Assessment Report for Olumiant
[2] = patients in clinical trials; ALT and AST increases to >=5x and >=10x ULN observed
[3] = PBC patients; Nevens et al. 2016

| Compound | patient's ALP after treatment [1] | incidence of liver enzyme elevation compared to placebo [2] | pruritus (adverse effect) [3] |
| --- | --- | --- | --- |
| CCS(=O)(=O)N1CC(CC#N)(n2cc(-c3ncnc4[nH]ccc34)cn2)C1 [baricitinib, {1-(ethylsulfonyl)-3-[4-(7H-pyrrolo[2,3-d]pyrimidin-4-yl)-1H-pyrazol-1-yl]azetidin-3-yl}acetonitrile] | ALP decreased after treatment | increased incidence of liver enzyme elevation compared to placebo | – |
| CC[C@H]1[C@@H](O)[C@@H]2[C@H](CC[C@]3(C)[C@@H]([C@H](C)CCC(=O)O)CC[C@@H]23)[C@@]2(C)CC[C@@H](O)C[C@@H]12 [obeticholic acid, Obeticholic acid] | – | – | associated with increased pruritus |
